Results as given in PubChem BioAssay AID248 (DTP/NCI, 2004).
“And” between values parts separate entries of the source, which are not always exact repeats. Equal values may be shown once. Inconclusive results and toxic doses are left out.

Tested on: L1210 leukemia ip in BDF1 mice, survival T/C
Assay: NCI In Vivo Anticancer Drug Screen. Data for tumor model L1210 Leukemia (intraperitoneal) in B6D2F1 (BDF1) mice
Details: endpoint: mean survival time, higher = longer survival
How it was run: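 Survival endpoint. Drug-treated group vs vehicle group, expressed as T divided by C. Tumor passaged by transplantation.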

[1] = dose: 100.0 mg/kg/injection, schedule: Q01DX009 (ip), vehicle: saline
[2] = dose: 100.0 mg/kg/injection, schedule: Q01DX001 (ip), vehicle: saline
[3] = dose: 200.0 mg/kg/injection, schedule: Q01DX001 (ip), vehicle: saline
[4] = dose: 400.0 mg/kg/injection, schedule: Q01DX001 (ip), vehicle: saline
[5] = dose: 400.0 mg/kg/injection, schedule: Q01DX009 (ip), vehicle: saline
[6] = dose: 100.0 mg/kg/injection, schedule: Q01DX009 (ip), vehicle: Klucel (hydroxypropylcellulose) (HPC)
[7] = dose: 100.0 mg/kg/injection, schedule: Q04DX003 (ip), vehicle: Klucel (hydroxypropylcellulose) (HPC)
[8] = dose: 200.0 mg/kg/injection, schedule: Q01DX009 (ip), vehicle: Klucel (hydroxypropylcellulose) (HPC)
[9] = dose: 200.0 mg/kg/injection, schedule: Q04DX003 (ip), vehicle: Klucel (hydroxypropylcellulose) (HPC)
[10] = dose: 400.0 mg/kg/injection, schedule: Q01DX009 (ip), vehicle: Klucel (hydroxypropylcellulose) (HPC)
[11] = dose: 400.0 mg/kg/injection, schedule: Q04DX003 (ip), vehicle: Klucel (hydroxypropylcellulose) (HPC)
[12] = dose: 100.0 mg/kg/injection, schedule: Q01DX009 (ip), vehicle: saline with Tween-80
[13] = dose: 200.0 mg/kg/injection, schedule: Q01DX009 (ip), vehicle: saline with Tween-80
[14] = dose: 400.0 mg/kg/injection, schedule: Q01DX009 (ip), vehicle: saline with Tween-80
[15] = dose: 50.0 mg/kg/injection, schedule: Q01DX009 (ip), vehicle: Klucel (hydroxypropylcellulose) (HPC)
[16] = dose: 50.0 mg/kg/injection, schedule: Q01DX009 (ip), vehicle: saline with Tween-80
[17] = dose: 100.0 mg/kg/injection, schedule: Q04DX003 (ip), vehicle: saline sonified
[18] = dose: 200.0 mg/kg/injection, schedule: Q04DX003 (ip), vehicle: saline sonified
[19] = dose: 100.0 mg/kg/injection, schedule: Q04DX002 (ip), vehicle: saline with Tween-80
[20] = dose: 200.0 mg/kg/injection, schedule: Q04DX002 (ip), vehicle: saline with Tween-80
[21] = dose: 400.0 mg/kg/injection, schedule: Q04DX002 (ip), vehicle: saline with Tween-80

`Nc1cccs1` was tested, and the T/C (dose: 8.12 mg/kg/injection, schedule: Q01DX009 (ip), vehicle: saline) was 100 % of control, the T/C (dose: 9.37 mg/kg/injection, schedule: Q01DX009 (ip), vehicle: other) was 94 % of control and the T/C (dose: 16.25 mg/kg/injection, schedule: Q01DX009 (ip), vehicle: saline) was 100 % of control. For the same compound, the T/C (dose: 18.75 mg/kg/injection, schedule: Q01DX009 (ip), vehicle: other) was 107 % of control, the T/C (dose: 37.5 mg/kg/injection, schedule: Q01DX009 (ip), vehicle: other) was 107 % of control and the T/C (dose: 75.0 mg/kg/injection, schedule: Q01DX009 (ip), vehicle: other) was 96 % of control. The T/C [1] was 153 % of control, the T/C (dose: 150.0 mg/kg/injection, schedule: Q01DX009 (ip), vehicle: other) was 96 % of control and the T/C (dose: 300.0 mg/kg/injection, schedule: Q01DX009 (ip), vehicle: other) was 102 % of control.

For `CCCCCCCC/C=C\CCCCCCCC(=O)OCC`, the T/C (dose: 100.0 mg/kg/injection, schedule: Q01DX001 (ip), vehicle: saline with Tween-80) was 98 % of control, the T/C (dose: 200.0 mg/kg/injection, schedule: Q01DX001 (ip), vehicle: saline with Tween-80) was 107 % of control and the T/C (dose: 400.0 mg/kg/injection, schedule: Q01DX001 (ip), vehicle: saline with Tween-80) was 95 % of control.

`CC(C)SSC(C)C` was tested, and the T/C [2] was 105 % of control, the T/C [3] was 108 % of control and the T/C [4] was 89 % of control.

`CCOP(=O)(OCC)C(C)OC` (stereo not given) was tested, and the T/C [1] was 95 % of control, the T/C (dose: 200.0 mg/kg/injection, schedule: Q01DX009 (ip), vehicle: saline) was 93 % of control and the T/C [5] was 104 % of control.

With `CCOC(=O)c1cnc(SC)nc1Nc1cc(Cl)cc(Cl)c1` the T/C (dose: 100.0 mg/kg/injection, schedule: Q04DX003 (ip), vehicle: saline with Tween-80) was 89 % of control, the T/C (dose: 200.0 mg/kg/injection, schedule: Q04DX003 (ip), vehicle: saline with Tween-80) was 87 % of control and the T/C (dose: 400.0 mg/kg/injection, schedule: Q04DX003 (ip), vehicle: saline with Tween-80) was 91 % of control.

`O=C(O)c1cccc(Br)c1[N+](=O)[O-]` was tested, and the T/C [2] was 97 % of control and the T/C [3] was 101 % of control.

For `N#Cc1cc2ccccc2n(O)c1=N`, the T/C (dose: 75.0 mg/kg/injection, schedule: Q04DX003 (ip), vehicle: saline) was 93 % of control, the T/C (dose: 150.0 mg/kg/injection, schedule: Q04DX003 (ip), vehicle: saline) was 109 % of control and the T/C (dose: 300.0 mg/kg/injection, schedule: Q04DX003 (ip), vehicle: saline) was 107 % of control.

`O=S1(=O)N2CN3CCN(C2)CN1C3` was tested, and the T/C [6] was 105 % of control, the T/C [7] was 95 % of control and the T/C [8] was 115 % of control. For the same compound, the T/C [9] was 103 % of control, the T/C [10] was 98 % of control and the T/C [11] was 98 % of control.

`O=C(OCc1ccccc1CN1CCCCC1)c1ccc(Cl)cc1` was tested, and the T/C (dose: 25.0 mg/kg/injection, schedule: Q04DX002 (ip), vehicle: Klucel (hydroxypropylcellulose) (HPC)) was 102 % of control, the T/C (dose: 50.0 mg/kg/injection, schedule: Q04DX002 (ip), vehicle: Klucel (hydroxypropylcellulose) (HPC)) was 105 % of control and the T/C (dose: 100.0 mg/kg/injection, schedule: Q04DX002 (ip), vehicle: Klucel (hydroxypropylcellulose) (HPC)) was 107 % of control.

For `O=C(O)c1ccsc1Cc1cccs1`, the T/C (dose: 100.0 mg/kg/injection, schedule: Q01DX001 (ip), vehicle: Klucel (hydroxypropylcellulose) (HPC)) was 101 % of control, the T/C [12] was 97 % of control and 89 % of control and the T/C (dose: 200.0 mg/kg/injection, schedule: Q01DX001 (ip), vehicle: Klucel (hydroxypropylcellulose) (HPC)) was 92 % of control. For the same compound, the T/C [13] was 96 % of control and 100 % of control, the T/C (dose: 400.0 mg/kg/injection, schedule: Q01DX001 (ip), vehicle: Klucel (hydroxypropylcellulose) (HPC)) was 106 % of control and the T/C [14] was 93 % of control and 89 % of control.

For `CN(CCC#N)c1ccc(-c2cc(C(=O)O)c3cc4ccccc4cc3n2)cc1`, the T/C (dose: 200.0 mg/kg/injection, schedule: Q04DX002 (ip), vehicle: Klucel (hydroxypropylcellulose) (HPC)) was 110 % of control and the T/C (dose: 400.0 mg/kg/injection, schedule: Q04DX002 (ip), vehicle: Klucel (hydroxypropylcellulose) (HPC)) was 95 % of control.

With `O=NN(c1ccccc1)c1ccc(N(N=O)c2ccccc2)cc1` the T/C [15] was 97 % of control, the T/C [6] was 96 % of control and the T/C [7] was 93 % of control. For the same compound, the T/C [8] was 100 % of control, the T/C [9] was 100 % of control and the T/C [10] was 96 % of control. The T/C [11] was 96 % of control.

In the case of `Cc1nc2c(NC(=O)CCl)nn(C)c2nc1C`, the T/C [16] is reported as 98 % of control and the T/C [12] is reported as 98 % of control.

`CCCCCC(C(C)=O)(C1=NC(C)(C)CC(C)O1)c1ccccc1` (stereo not given) was tested, and the T/C [17] was 103 % of control, the T/C [18] was 120 % of control and the T/C (dose: 400.0 mg/kg/injection, schedule: Q04DX003 (ip), vehicle: saline sonified) was 111 % of control.

For `C=C(C)CC1(CC2SCCCS2)SCCCS1`, the T/C (dose: 25.0 mg/kg/injection, schedule: Q04DX002 (ip), vehicle: saline with Tween-80) was 98 % of control, the T/C (dose: 50.0 mg/kg/injection, schedule: Q04DX002 (ip), vehicle: saline with Tween-80) was 106 % of control and the T/C [19] was 88 % of control. For the same compound, the T/C [20] was 98 % of control.

For `CCCCC#CC(=O)OCC`, the T/C (dose: 100.0 mg/kg/injection, schedule: Q04DX002 (ip), vehicle: saline) was 97 % of control, the T/C (dose: 200.0 mg/kg/injection, schedule: Q04DX002 (ip), vehicle: saline) was 97 % of control and the T/C (dose: 400.0 mg/kg/injection, schedule: Q04DX002 (ip), vehicle: saline) was 112 % of control.

With `Clc1ccc2c(c1)Sc1ccc(Cl)cc1S2` the T/C [19] was 101 % of control, the T/C [20] was 101 % of control and the T/C [21] was 97 % of control.

`O=C1/C(=C\c2ccccc2)COC/C1=C\c1ccccc1` was tested, and the T/C [1] was 94 % of control and the T/C [5] was 87 % of control.

With `CC(=O)OCOC(COC(C)=O)C1OCOC(COC(C)=O)C1OCOC(C)=O` (stereo not given) the T/C [19] was 100 % of control, the T/C [20] was 100 % of control and the T/C [21] was 100 % of control.

For `Cc1ccc(S(=O)(=O)NCN2C(=O)c3ccccc3C2=O)cc1`, the T/C (dose: 100.0 mg/kg/injection, schedule: Q01DX001 (ip), vehicle: acetone) was 98 % of control, the T/C [12] was 93 % of control and the T/C (dose: 100.0 mg/kg/injection, schedule: Q04DX003 (ip), vehicle: saline) was 94 % of control. For the same compound, the T/C (dose: 200.0 mg/kg/injection, schedule: Q01DX001 (ip), vehicle: acetone) was 93 % of control, the T/C [13] was 98 % of control and the T/C (dose: 200.0 mg/kg/injection, schedule: Q04DX003 (ip), vehicle: saline) was 97 % of control. The T/C (dose: 400.0 mg/kg/injection, schedule: Q01DX001 (ip), vehicle: acetone) was 95 % of control, the T/C [14] was 97 % of control and the T/C (dose: 400.0 mg/kg/injection, schedule: Q04DX003 (ip), vehicle: saline) was 99 % of control.

With `NC(=S)N/N=C1\COC(C(F)(F)F)(C(F)(F)F)C1` the T/C (dose: 12.5 mg/kg/injection, schedule: Q01DX009 (ip), vehicle: Klucel (hydroxypropylcellulose) (HPC)) was 100 % of control, the T/C (dose: 25.0 mg/kg/injection, schedule: Q01DX009 (ip), vehicle: Klucel (hydroxypropylcellulose) (HPC)) was 97 % of control and the T/C [15] was 96 % of control. For the same compound, the T/C [6] was 97 % of control and 100 % of control, the T/C [7] was 103 % of control and the T/C [9] was 105 % of control.

With `CCOC(=O)c1ccc(NC(=O)Nc2ccc(F)c([N+](=O)[O-])c2)cc1` the T/C [6] was 95 % of control, the T/C [8] was 101 % of control and the T/C [10] was 96 % of control.

`O=[N+]([O-])c1ccc(O)cc1/C=N/Nc1nnc(N/N=C/c2cc(O)ccc2[N+](=O)[O-])c2ccccc12` was tested, and the T/C (dose: 50.0 mg/kg/injection, schedule: Q01DX001 (ip), vehicle: saline) was 98 % of control, the T/C [2] was 98 % of control and the T/C [3] was 98 % of control. The T/C [4] was 102 % of control.

`Nc1ccc2ncnn2c1` was tested, and the T/C [2] was 103 % of control, the T/C [3] was 106 % of control and the T/C [4] was 101 % of control.

In the case of `CCCCOCN1C(=O)NC(c2ccccc2)(c2ccccc2)C1=O`, the T/C [16] is reported as 108 % of control and the T/C [12] is reported as 94 % of control.

In the case of `CC1B(O)Nc2nc(=S)[nH]c(N)c21` (stereo not given), the T/C [17] is reported as 104 % of control and the T/C [18] is reported as 103 % of control.

`CC(O)C[As](=O)(O)c1cccc(Cl)c1` (stereo not given) was tested, and the T/C (dose: 12.5 mg/kg/injection, schedule: Q01DX001 (ip), vehicle: Klucel (hydroxypropylcellulose) (HPC)) was 108 % of control.
